Assay results reported in ChEMBL document CHEMBL3091311, “Removal of human ether-à-go-go related gene (hERG) K+ channel affinity through rigidity: a case of clofilium analogues” (J Med Chem, 2013).

Tests used:
[1] = target: T1, Voltage-gated inwardly rectifying potassium channel KCNH2 (Homo sapiens, UniProt Q12809); assay: Displacement of [3H]astemizole from human ERG channel expressed in HEK293 cell membrane after 1 hr by scintillation counting analysis
[2] = target: T2, hERG (KCNH2) (Homo sapiens, UniProt Q12809); assay: Displacement of [3H]astemizole from human ERG channel expressed in HEK293 cell membrane at 10 uM after 1 hr by scintillation counting analysis; details: membranes of HEK293 cells that express hERG, probe [3H]astemizole
T2 sequence (Q12809 whole entry): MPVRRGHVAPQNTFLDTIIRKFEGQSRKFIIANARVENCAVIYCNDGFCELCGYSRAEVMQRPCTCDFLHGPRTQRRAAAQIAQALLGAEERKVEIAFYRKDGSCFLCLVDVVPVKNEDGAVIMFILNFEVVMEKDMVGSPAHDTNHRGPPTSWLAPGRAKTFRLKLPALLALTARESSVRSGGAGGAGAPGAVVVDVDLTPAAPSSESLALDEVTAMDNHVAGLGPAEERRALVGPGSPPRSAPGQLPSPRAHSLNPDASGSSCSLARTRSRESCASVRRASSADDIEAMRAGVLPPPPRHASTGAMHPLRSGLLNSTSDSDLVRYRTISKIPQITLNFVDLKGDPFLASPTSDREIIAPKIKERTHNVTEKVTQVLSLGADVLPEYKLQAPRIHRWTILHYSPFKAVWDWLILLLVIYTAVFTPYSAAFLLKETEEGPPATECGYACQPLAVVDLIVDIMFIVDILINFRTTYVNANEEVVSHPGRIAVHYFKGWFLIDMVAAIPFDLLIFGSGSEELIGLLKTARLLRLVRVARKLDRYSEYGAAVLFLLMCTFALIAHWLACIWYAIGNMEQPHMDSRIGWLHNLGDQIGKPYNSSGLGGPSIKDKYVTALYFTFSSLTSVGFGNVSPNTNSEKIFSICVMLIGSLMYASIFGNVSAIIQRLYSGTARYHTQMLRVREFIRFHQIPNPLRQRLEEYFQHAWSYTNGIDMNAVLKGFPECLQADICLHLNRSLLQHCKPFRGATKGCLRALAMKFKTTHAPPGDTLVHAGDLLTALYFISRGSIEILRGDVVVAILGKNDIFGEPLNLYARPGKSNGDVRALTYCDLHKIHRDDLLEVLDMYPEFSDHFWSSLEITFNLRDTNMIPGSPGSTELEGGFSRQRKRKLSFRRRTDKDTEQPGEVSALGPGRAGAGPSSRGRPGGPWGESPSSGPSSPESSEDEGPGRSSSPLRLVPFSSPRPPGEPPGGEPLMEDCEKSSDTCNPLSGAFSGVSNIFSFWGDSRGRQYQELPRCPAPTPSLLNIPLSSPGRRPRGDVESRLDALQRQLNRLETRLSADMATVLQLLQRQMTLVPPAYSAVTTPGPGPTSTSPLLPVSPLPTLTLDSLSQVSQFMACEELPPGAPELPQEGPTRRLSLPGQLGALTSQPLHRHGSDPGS

[3] = target: T2, hERG (KCNH2); assay: Ratio of Ki for human ERG channel expressed in HEK293 cell membrane after 1 hr by scintillation counting analysis to IC50 for human ERG channel expressed in HEK293 cells after 15 mins by whole-cell patch clamp technique; assay type: cell membranes
[4] = target: T1, Voltage-gated inwardly rectifying potassium channel KCNH2; assay: Inhibition of human ERG channel expressed in HEK293 cells after 15 mins by whole-cell patch clamp technique; assay type: cell-based

T1 sequence (Q12809 whole entry): as above

Row | Structure (SMILES) | IC50 [1] [nM] | also measured
1 | CCCCN(CC)CC#CCOCc1ccc(Cl)cc1 | 7370 | –
2 | CCCCCCCN(CC)C/C=C/CCc1ccc(Cl)cc1 | 238 | –
3 | CCCCCCCN1CCC(C(=O)c2ccccc2)CC1 | 124 | –
4 | CCCCCCCN(CC)CC#Cc1ccc(Cl)cc1 | 4080 | –
5 | CCCCCCC[N+](CC)(CC)CC#Cc1ccc(Cl)cc1 | 40 | –
6 | CCCCN(CC)CC#CCCc1ccccc1 | – | inhibition at 1 h, 10 µM [2]: 48%
7 | CCCCCCCN(CC)CC#CCCc1ccccc1 | 4390 | –
8 | CCCCCCCN(CC)CC#CCCc1ccc(Cl)cc1 | 765 | selectivity ratio [3]: 2; IC50 [4]: 53 nM; Ki [1]: 148 nM
9 | CCCCN(CC)CC#CCCc1ccc(C)cc1 | 5590 | –
10 | CCCCN(CC)CC#CC#Cc1ccc(C)cc1 | – | inhibition at 1 h, 10 µM [2]: 47%
11 | CCCCN(CC)C/C=C/c1ccc(Cl)cc1 | 1050 | –
12 | CCCCCCCN(CC)C/C=C/c1ccc(Cl)cc1 | 243 | –
13 | CCCCCCCN(CC)CC#CCOC(c1ccccc1)c1ccccc1 | 970 | –
